Source: patent US10058530B2, “Combination therapies for the treatment of Alzheimer's disease and related disorders” (The General Hospital Corporation, priority 2012, dated 2018)
“Also recorded” adds a separate entry of the source. Like-named read-outs stand apart in the source and are kept apart here.

How the values were obtained:
[1] = system: Aβ peptide; assay: Aβ aggregation by thioflavin T assay; format: biochemical; conditions: for inhibition of Aβ amyloid peptide polymerization into oligomers and higher order aggregates: summary of four separate in vitro assays, nanomolar concentrations; for inhibition of Aβ aggregation, thioflavin fluorescence: nanomolar concentration
Description: One of the most routinely used approaches to monitor Aβ polymerization is the thioflavin T binding assay. […] Aβ peptide at 5 μM was mixed with 10 μM thioflavin T with drug at different concentrations.
(§1) One of the most routinely used approaches to monitor Aβ polymerization is the thioflavin T binding assay (Elmaleh, 2014; Hori, 2015). […] Aβ peptide at 5 μM was mixed with 10 μM thioflavin T with drug at different concentrations.
Fibrillization of synthetic Aβ40 (FIG. 12A, left column and FIG. 12B, left column) or Aβ42 (FIG. 12A, right column and FIG. 12B, right column) peptides was followed over 1 hour.

[2] = system: Aβ fibril formation; conditions: cited from earlier work
[3] = clinical; conditions: human, in vivo; for MRT: mean residence time in plasma
[4] = J. Pharm. Sci. 92(6), 2003; cited from earlier work
[5] = biological target: T1, Aβ42 (Homo sapiens, UniProt P05067); assay: TBS soluble Aβ42 level in brain of APP/PS1 mice by WAKO ELISA; format: in vivo; set-up: from tissue; host or cells: brain TBS-soluble extract of APP/PS1 transgenic mice; conditions: two higher doses (2.1 mg/kg and 3.15 mg/kg), IP daily 7 days
Source text: (§2) The treatment was given by IP injection everyday for 7 days before sacrificing the mice and harvesting the brain. Brain extracts were quantified for the total amount of Aβ40, Aβ42 and Aβ oligomers.
(§3) FIG. 5 illustrates the measurement of TBS soluble Aβ level by WAKO ELISA. […] As indicated, the number of animals per group is N=3 or 5, average±SE. The p value is significant using one-way ANOVA test (Bonferroni's test).

[6] = system: microglial cells; assay: Aβ uptake by cultured microglial cells; format: cell-based; conditions: 0, 10 nM, 10 μM or 1 mM, 16 hours
Description: After the incubation, the concentrations of […]-42 (right panel) in media were measured using Aβ ELISA and normalized with microglia cell number and according to the PBS control condition. (n=3 experiments; *, P<0.05, **, P<0.01)

[7] = biological target: Abeta (1-40) peptides (Homo sapiens, UniProt P05067); assay: UV aggregation assay; format: biochemical
Description: Abeta peptide aggregation and the impact of drugs to slow or prevent Abeta aggregation was measured by a UV absorbance assay (Findeis, 1999). Abeta (1-40) peptides, at 50 μM, were mixed with 50 μM drug in assay buffer and the plate was incubated at ambient temperature on a plate reader. The UV absorbance was monitored at 540 nm over a 2-3 h period.
Polymerization of Aβ-monomer peptides into clusters of trimers and tetramers initiates the Aβ aggregation process into protofibrils and then into fibrils that form amyloid plaques.

[8] = human
[9] = system: microglia (Iba1) around amyloid deposits; assay: Immunostaining of Aβ and microglial marker Iba1 in brain sections of APP/PS1 mice; format: in vivo; conditions: 3.15 mg/kg daily for seven days, vs PBS
[10] = biological target: T2, Aβ40 (Homo sapiens, UniProt P05067); assay: TBS soluble Aβ40 level in brain of APP/PS1 mice by WAKO ELISA; format: in vivo; set-up: from tissue; host or cells: brain TBS-soluble extract of APP/PS1 transgenic mice; conditions: two higher doses (2.1 mg/kg and 3.15 mg/kg), IP daily 7 days
Source text: as §2, §3

[11] = inhalation studies, Beach et al. 1981; cited from earlier work
[12] = human lung, high inspiratory rates, dry powder inhaler; cited from earlier work
[13] = system: TBS soluble Aβ; assay: TBS soluble Aβ level in brain of APP/PS1 mice by WAKO ELISA; format: in vivo
Source text: as §2, §3

[14] = system: Aβ oligomer; assay: TBS soluble Aβ oligomer level in brain of APP/PS1 mice (IBL 82E1-82E1 oligomer ELISA); format: in vivo; conditions: IP daily 7 days
Source text: as §2
FIG. 6 illustrates the measurement of TBS soluble Aβ oligomer level IBL oligomer ELISA (82E1-82E1). […] FIGS. 6B and 6C show the difference the experiments with Gdn and those without Gdn using Aβ WAKO ELISA. N=3 or 5 animals per group, average±SE. The p value is not significant using one-way ANOVA test (Bonferroni's test).

[15] = biological target: T2, Aβ40; assay: Thioflavin T fibrillization assay, synthetic Aβ40; format: biochemical; set-up: host or cells: synthetic peptide; conditions: 5 nM, 50 nM and 500 nM; followed over 1 hour
Description: as §1
(§4) Fibrillization of synthetic Aβ40 (FIG. 12A, left column and FIG. 12B, left column) or Aβ42 (FIG. 12A, right column and FIG. 12B, right column) peptides was followed over 1 hour. The corresponding Vmax index (milli-units/minute) is indicated on each graph.

[16] = biological target: T1, Aβ42; assay: Thioflavin T fibrillization assay, synthetic Aβ42; format: biochemical; set-up: host or cells: synthetic peptide; conditions: 5 nM, 50 nM and 500 nM; followed over 1 hour; smaller effects than on Aβ40
Description: as §1, §4

[17] = system: AD patients; conditions: some AD patients; Wettstein and Spiegel, 1985; cited from earlier work
[18] = in vivo; cited from earlier work
[19] = system: basal forebrain cholinergic neurons; conditions: rats; cited from earlier work
[20] = system: cholinergic neurons; conditions: aged rhesus monkeys; cited from earlier work
[21] = system: Alzheimer's disease patients; conditions: Phase 2a; cited from earlier work
[22] = Brain concentration of PIB analog TS3124; conditions: in vivo

Abeta (1-40) peptides, sequence (P05067 672-711 limits assumed): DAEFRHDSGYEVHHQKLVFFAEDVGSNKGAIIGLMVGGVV
T1 sequence (P05067 672-713 limits assumed): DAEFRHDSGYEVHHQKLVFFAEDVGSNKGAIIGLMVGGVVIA
T2 sequence (P05067 672-711 limits assumed): as the sequence (P05067 672-711 limits assumed) above

## O=C([O-])c1cc(=O)c2c(OCC(F)COc3cccc4oc(C(=O)[O-])cc(=O)c34)cccc2o1.[Na+].[Na+] [TS734]
[1]
  inhibition of Aβ amyloid peptide polymerization into oligomers and higher order aggregates: effectively inhibits

## O=c1c(O)c(-c2ccc(O)c(O)c2)oc2ccccc12 [3,3′,4′-Trihydroxyflavone, 3,3′,4′-Tri-hydroxyflavone]
[2]
  Effects on Aβ fibril formation: Inhibitory

## O=C([O-])c1cc(=O)c2c(OCC(O)COc3cccc4oc(C(=O)[O-])cc(=O)c34)cccc2o1.[Na+].[Na+] [cromolyn sodium]
[3]; inhaled or intranasal, 17.1 mg, 17.1 mg inhaled
  MRT: 3.3 ± 2.9 h
[3]; inhaled or intranasal, 17.1 mg, range, 17.1 mg inhaled
  MRT: 0.79 to 12.1 h
[3]; inhaled or intranasal, 34.2 mg, 34.2 mg inhaled (double dose)
  MRT: 2.8 ± 1 h
[3]; inhaled or intranasal, 34.2 mg, range, 34.2 mg inhaled (double dose)
  MRT: 1 to 5.4 h
[3]; inhaled or intranasal, half-life of clearance from plasma, inhaled
  half-life: 1.75 ± 0.9 h
[3]; inhaled or intranasal, half-life of clearance from plasma, range, inhaled
  half-life: 0.5 to 3.7 h
[3]; plasma half-life corresponding to mean residence time, 17.1 mg inhaled
  half-life: ~2.3 h
[4]
  % PSA: 44
  LogP: 1.9
  PSA: 189
[1]
  concentration at which Aβ peptide polymerization is inhibited: 5 nM
  inhibition of Aβ aggregation, thioflavin fluorescence: inhibition of Aβ aggregation; also recorded: inhibiting effect
  inhibition of Aβ amyloid peptide polymerization into oligomers and higher order aggregates: inhibits its polymerization into oligomers and higher order aggregates; also recorded: effectively inhibits
[1]; listed as CO399
  inhibition of Aβ aggregation, thioflavin fluorescence: inhibition of Aβ aggregation
[1]; listed as cromolyn
  inhibition of Aβ amyloid peptide polymerization into oligomers and higher order aggregates: effectively inhibits
[5]
  decrease in the amount of Aβ42: up to 50%
[6]; 50 nM synthetic Aβ40
  Aβ40 levels in media of microglia culture: dose-dependent decrease
[6]; 50 nM synthetic Aβ42
  Aβ42 levels in media of microglia culture: dose-dependent decrease
[7]
  inhibition of Aβ peptide polymerization: 8 fold
[7]; equimolar with Aβ (50 μM)
  inhibition of the rate of Aβ polymerization: 7 fold
[7]; equimolar with Aβ (50 μM), 14 minutes in absence of drug
  time to 50% polymerization: 75 min
[8]; 17.1 mg inhaled
  AUC (plasma): 147.5±67.1 ng/mlxh
  AUC (plasma), range: 44.7-287.0 ng/mlxh
  maximum plasma concentration: 47.1 ± 33.6 ng/mL
  maximum plasma concentration, range: 14.0 to 133 ng/mL
  time of maximum plasma concentration: 23.3 ± 16.9 min
  time of maximum plasma concentration, range: 5 to 60 min
[8]; 34.2 mg inhaled (double dose)
  AUC (plasma): 254.4±93.8 ng/mlxh
  AUC (plasma), range: 122.1-443.3 ng/mlxh
  maximum plasma concentration: 95.0 ± 45.5 ng/mL
  maximum plasma concentration, range: 36.1 to 236 ng/mL
  time of maximum plasma concentration: 22.2 ± 19.4 min
  time of maximum plasma concentration, range: 5 to 60 min
[8]; inhaled, expected
  plasma concentration at 12 hours following inhalation: negligible
[9]
  percentage of Iba1 immunoreactivity overlapping with amyloid: higher percentage of Iba1 immunoreactivity overlapping with amyloid
[9]; listed as Cromolyn Sodium
  percentage of Iba1 immunoreactivity overlapping with amyloid: increased overlap between Aβ and Iba1
[10]
  decrease in the amount of Aβ40: up to 50%
[11]
  pulmonary and cardiovascular (CV) function assessments: no treatment effect
[12]
  inhaled drug-delivered-dose absorbed into the bloodstream: 10-15%
[13]; APP/PS1 mice, IP daily 7 days, no guanidine
  monomeric Aβ (Gdn−): decease; also recorded: reduction
[13]; after 1 week of peripheral administration
  decrease of total soluble Aβ levels: over 50%
[14]
  Aβ oligomer level as difference with and without Gdn, WAKO ELISA: not changed
[15]
  Aβ40 fibrillization, Thioflavin T fluorescence: significantly decreased
[16]
  Aβ42 fibrillization, Thioflavin T fluorescence: significantly decreased

## Fisetin
[2]
  Effects on Aβ fibril formation: Inhibitory

## O=c1cc(-c2ccc(O)c(O)c2)oc2cc(O)cc(O)c12 [Luteolin]
[2]
  Effects on Aβ fibril formation: Inhibitory

## O=c1c(O)c(-c2ccc(O)cc2)oc2cc(O)ccc12 [5-Deoxykaempferol, 5-Deoxy-kaempferol]
[2]
  Effects on Aβ fibril formation: Enhancing

## O=c1c(O)c(-c2ccc(O)cc2)oc2cc(O)cc(O)c12 [Kaempferol]
[2]
  Effects on Aβ fibril formation: Enhancing

## O=c1cc(-c2ccccc2)oc2cc(O)cc(O)c12 [Chrysin]
[2]
  Effects on Aβ fibril formation: Enhancing

## O=c1c(O)c(-c2cccc(O)c2)oc2cc(O)ccc12 [3,3′,7-Trihydroxyflavone, 3,3′,7-Tri-hydroxyflavone]
[2]
  Effects on Aβ fibril formation: Enhancing

## CCN1C(=O)CC2(CCN(C)CC2)C1=O [RS-86, 2-ethyl-8-methyl-2,8-diazospiro-4,5-decan-1,3-dione]
[17]
  cognitive function, mood and social behavior: improves cognitive function, mood and social behavior
[18]
  brain penetration: low

## NGF: nerve growth factor; CERE-110 is NGF gene therapy
[19]
  age-related behavioral decline: reversed age-related behavioral decline
  cholinergic neuron cell death: prevented cholinergic neuron cell death
[20]
  cholinergic axonal density: restores cholinergic axonal density in aged monkeys to levels observed in young monkeys
  cholinergic neuron atrophy: ameliorates cholinergic neuron atrophy

## O=c1c(O)c(-c2cc(O)c(O)c(O)c2)oc2cc(O)cc(O)c12 [Myricetin]
[2]
  Effects on Aβ fibril formation: Inhibitory

## O=c1c(O)c(-c2ccc(O)c(O)c2)oc2cc(O)cc(O)c12 [Quercetin]
[2]
  Effects on Aβ fibril formation: Inhibitory

## O=c1c(O)c(-c2ccc(O)cc2)oc2cc(O)ccc12 [3,4′,7-Trihydroxyflavone, 3,4′,7-Tri-hydroxyflavone]
[2]
  Effects on Aβ fibril formation: Inhibitory

## O=C(NC1CN2CCC1CC2)c1n[nH]c2ccccc12 (stereo not drawn) [R3487]
[21]
  effect on multiple measures of cognition: statistically significant effect

## CC(F)CNc1ccc(-c2nc3ccc(O)cc3s2)cc1 (stereo not drawn) [TS3124]
[22]
  brain concentration: 4%
